Experimental data: US6468969B1, “Inhibition of HIV-1 replication using d-amino acid peptides” (priority 1997, dated 2002)

Molecular target: proteinase K (Parengyodontium album, UniProt P06873)
Experiment: Proteinase K digestion of peptide-TAR RNA photocrosslink products
Conditions: very vigorous proteinase K digestion
Experimental: For photochemical reactions, RNA duplex was prepared by hybridizing two strands ^24. Strand 1 of the duplex was 5′-end labeled with ^32P. Preformed RNA duplexes(0.02 μM) in the absence or presence of the peptide (0.1 μM) were irradiated ([…]) and analyzed by denaturing gels as described in Wang et al., Biochemistry 35, 6491-6499 (1996).

Sequence of proteinase K (P06873 106-384): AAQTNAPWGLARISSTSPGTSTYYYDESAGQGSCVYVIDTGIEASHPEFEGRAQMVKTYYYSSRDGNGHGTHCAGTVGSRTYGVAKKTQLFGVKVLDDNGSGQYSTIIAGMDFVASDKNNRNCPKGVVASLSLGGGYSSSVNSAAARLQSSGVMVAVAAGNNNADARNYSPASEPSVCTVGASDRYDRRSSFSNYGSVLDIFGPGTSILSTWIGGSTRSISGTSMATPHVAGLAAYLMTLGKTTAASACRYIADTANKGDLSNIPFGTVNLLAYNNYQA

With `CC[C@@H](C)[C@@H](NC(=O)CNC(=O)[C@@H](CC(C)C)NC(=O)[C@@H](C)NC(=O)[C@@H](CCCCN)NC(=O)[C@H](NC(=O)[C@H](NC(=O)[C@@H](Cc1ccccc1)NC(=O)[C@H](N)CS)[C@H](C)O)[C@H](C)O)C(=O)N[C@H](CO)C(=O)N[C@H](Cc1ccc(O)cc1)C(=O)NCC(=O)N[C@H](CCCNC(=N)N)C(=O)N[C@H](CCCCN)C(=O)N[C@H](CCCCN)C(=O)N[C@H](CCCNC(=N)N)C(=O)N[C@H](CCCNC(=N)N)C(=O)N[C@H](CCC(N)=O)C(=O)N[C@H](CCCNC(=N)N)C(=O)N[C@H](CCCNC(=N)N)C(=O)N[C@H](CCCNC(=N)N)C(=O)N1CCC[C@@H]1C(=O)N1CCC[C@@H]1C(=O)N[C@H](CCC(N)=O)C(=O)NCC(=O)N[C@H](CO)C(=O)N[C@H](CCC(N)=O)C(=O)N[C@@H](C(=O)N[C@H](Cc1c[nH]cn1)C(=O)N[C@H](CCC(N)=O)C(=O)N[C@@H](C(=O)N[C@H](CO)C(=O)N[C@H](CC(C)C)C(=O)N[C@H](CO)C(=O)N[C@H](CCCCN)C(=O)N[C@H](CCC(N)=O)C(=O)O)C(C)C)[C@H](C)O` [D-Tat (37-72) peptide, D-Cys-D-Phe-D-Thr-D-Thr-D-Lys-D-Ala-D-Leu-D-Gly-D-Ile-D-Ser-D-Tyr-D-Gly-D-Arg-D-Lys-D-Lys-D-Arg-D-Arg-D-Gln-D-Arg-D-Arg-D-Arg-D-Pro-D-Pro-D-Gln-D-Gly-D-Ser-D-Gln-D-Thr-D-His-D-Gln-D-Val-D-Ser-D-Leu-D-Ser-D-Lys-D-Gln] the “protease stability of peptide-RNA crosslink products” value was “completely stable”.
